Assay in all cases: DTP human tumour cell line panel, 48 h
Assay [1] concerns RXF 393.
The subject of assay [2] is HCT-15.
Assay [3] relates to SK-OV-3.
For assay [4], the system named is UACC-257.
Assay [5] has as its system NCI-H226.
Assay [6] concerns Hs-578T.
Assay [7] relates to T47D.
In assay [8] the test system is NCI-H23.
The test system of assay [9] is SK-MEL-5.
Assay [10] deals with K562.
Assay [11] deals with SF-295.
Assay [12] relates to MCF7.
Assay [13] relates to SNB-19.
The subject of assay [14] is IGROV-1.
Assay [15] deals with SW-620.
The test system of assay [16] is DU-145.
The test system of assay [17] is SR.
Assay [18] relates to HCC 2998.
In assay [19] the test system is OVCAR-3.
In assay [20] the test system is NCI-H522.

Here are results for ten molecules from ChEMBL document CHEMBL1201862, “PubChem BioAssay data set” (2004).

Structures are written as SMILES.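 In this assay, cells in 96-well plates receive the compound at five concentrations for 48 hours. Endpoints are linearly interpolated between the surrounding concentrations. GI50 = concentration required for 50% inhibition of growth.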 The source made the active and inactive calls. Rule as the data show it: active = GI50 up to about 1.1 µM and inactive = higher.

As a reminder, the GI50 is the concentration giving 50% growth inhibition.

In the case of `CN(C)C(n1cc2c(c1)-c1ccc(Cl)cc1C(c1ccccc1F)=NC2)n1cc2c(c1)-c1ccc(Cl)cc1C(c1ccccc1F)=NC2`, the GI50 in assay [1] was 20.2 µM (inactive); in [2] it was greater than 100 µM; in [3], > 100 µM (inactive); in [4] it was > 100 µM (inactive); in assay [5], 13 µM (inactive); in [6], > 100 µM (inactive). Also, the GI50 in [7] was 38.4 µM (inactive); in assay [8], 3.31 µM (inactive); in assay [9] it was > 100 µM (inactive); in [10], > 100 µM (inactive); in [11], 26.3 µM (inactive); in assay [12], 64.3 µM (inactive). Moreover, the GI50 in assay [13] was > 100 µM (inactive); in [14] it was > 100 µM (inactive); in [15], > 100 µM (inactive); in assay [16] it was 54 µM (inactive); in assay [17] it was > 100 µM (inactive); in assay [18] it was 82 µM (inactive). Besides, the GI50 in assay [19] is 87.5 µM (inactive); in assay [20] it was 81.8 µM (inactive).

For `O=S1(=O)NC2CCC3NS(=O)(=O)NC4CCC(N1)N4S(=O)(=O)N23` (stereo not given), the GI50 in assay [1] was > 100 µM (inactive); in [2] it was greater than 100 µM; in [3], > 100 µM (inactive); in assay [4], > 100 µM (inactive); in assay [5] it was > 100 µM (inactive); in assay [6] it was > 100 µM (inactive). Also, the GI50 in assay [7], in [8], in assay [9], in [10], in [11] and in assay [12] was > 100 µM (inactive) each time. The GI50 in assay [13], in assay [14], in assay [15], in assay [16], in [17] and in [18] was > 100 µM (inactive) in each case. The GI50 in assay [19] and in assay [20] was > 100 µM (inactive) in each case.

As to `N=C1C=C(N)C(=O)c2[nH]c(=O)ccc21`, the GI50 was 1.87 µM (inactive) in assay [1]; 2.06 µM in assay [2]; 13.8 µM (inactive) in assay [3]; 5.07 µM (inactive) in [4]; 2.53 µM (inactive) in assay [5]; 4.42 µM (inactive) in assay [6]. Also, the GI50 in assay [7] is 1.76 µM (inactive); in assay [8], 2.23 µM (inactive); in [9], 1.8 µM (inactive); in [10], 1.91 µM (inactive); in assay [11] it was 17.3 µM (inactive); in assay [12] it was 0.351 µM (active). The GI50 is 2.02 µM (inactive) in [13]; 1.96 µM (inactive) in [14]; 2.88 µM (inactive) in [15]; 8.13 µM (inactive) in [16]; 3.44 µM (inactive) in assay [17]; 19.3 µM (inactive) in assay [18]. Besides, the GI50 in assay [19] was 1.54 µM (inactive); in assay [20] it was 1.56 µM (inactive).

For the molecule `O=C(O)C(Oc1nc(S)nc(S)n1)(c1ccc(Cl)cc1)c1ccc(Cl)cc1`, the GI50 in [1] was > 100 µM (inactive); in assay [2], greater than 100 µM; in assay [3], > 100 µM (inactive); in assay [4] it was > 100 µM (inactive); in assay [5], > 100 µM (inactive); in assay [6], > 100 µM (inactive). The GI50 in [7], in [8], in assay [9], in [10], in assay [11] and in assay [12] was > 100 µM (inactive) each time. The GI50 is > 100 µM (inactive) in assay [13]; > 100 µM (inactive) in [14]; > 100 µM (inactive) in assay [15]; > 100 µM (inactive) in [16]; > 100 µM (inactive) in assay [17]; 92.7 µM (inactive) in assay [18]. In addition, the GI50 in assay [19] and in [20] was > 100 µM (inactive) in each case.

`CCN(CC)CC(C)(C)C(=O)/C=C/c1ccc(/C=C/C(=O)C(C)(C)CN(CC)CC)cc1`: the GI50 in [1] is 0.233 µM (active); in assay [2] it was 0.325 µM; in assay [3] it was 2.09 µM (inactive); in assay [4] it was 1.62 µM (inactive); in assay [5] it was 2.28 µM (inactive); in assay [6], 0.462 µM (active). Besides, the concentration for 50% growth inhibition (GI50) in [7] is 0.587 µM (active); in [8], 0.991 µM (active); in assay [9], 1.54 µM (inactive); in assay [10], 0.0935 µM (active); in assay [11], 1.22 µM (inactive); in [12], 0.233 µM (active). Also, the GI50 was 1.53 µM (inactive) in assay [13]; 1.27 µM (inactive) in assay [14]; 0.211 µM (active) in assay [15]; 2.01 µM (inactive) in assay [16]; 0.0893 µM (active) in assay [17]; 0.333 µM (active) in [18]. In addition, the GI50 in assay [19] is 0.533 µM (active); in [20], 0.104 µM (active).

For the molecule `CC(NCc1c(O)ccc2c(-c3ccccc3)cc(=O)oc12)C(=O)O` (stereo not given), the GI50 in [1] is > 100 µM (inactive); in assay [2] it was greater than 100 µM; in assay [3] it was > 100 µM (inactive); in assay [4], > 100 µM (inactive); in assay [5] it was > 100 µM (inactive); in assay [6], > 100 µM (inactive). Also, the GI50 in assay [7], in [8], in assay [9], in assay [10], in assay [11] and in assay [12] was > 100 µM (inactive) throughout. The GI50 in assay [13], in assay [14], in [15], in assay [16], in assay [17] and in assay [18] was > 100 µM (inactive) in each case. Also, the GI50 in assay [19] and in assay [20] was > 100 µM (inactive) in each case.

Regarding `CCOC(=O)C1=C(C)N(Cc2ccccc2)C2(O)C=CC(O)=C3C(=O)c4ccccc4C(=O)C312` (stereo not given), the GI50 in assay [1] is 3.37 µM (inactive); in [2] it was 3.82 µM; in [3], 29.6 µM (inactive); in [4], 17.2 µM (inactive); in [5] it was 20.6 µM (inactive); in assay [6] it was 22.4 µM (inactive). The GI50 was 18.9 µM (inactive) in assay [7]; 8.61 µM (inactive) in assay [8]; 10.3 µM (inactive) in assay [9]; 15.1 µM (inactive) in assay [10]; 10.3 µM (inactive) in [11]; 0.128 µM (active) in assay [12]. In addition, the GI50 in assay [13] is 26.5 µM (inactive); in assay [14] it was 4.16 µM (inactive); in assay [15] it was 13.6 µM (inactive); in [16], 16.5 µM (inactive); in assay [17], 4.37 µM (inactive); in [18], 17 µM (inactive). Further, the GI50 is 7.67 µM (inactive) in assay [19] and 11.9 µM (inactive) in assay [20].

Take `CC1=C(C(=O)Nc2ccccc2)C(c2ccc(N(C)C)cc2)C(C(=O)Nc2ccccc2)=C(C)N1`: the GI50 in assay [1] was > 85.1 µM (inactive); in [2], 0.493 µM; in assay [3], 59.2 µM (inactive); in assay [4], 8.32 µM (inactive); in assay [5], > 89.5 µM (inactive); in assay [6] it was > 100 µM (inactive). For the same molecule, the GI50 in assay [7] is 3.33 µM (inactive); in assay [8] it was 24.9 µM (inactive); in assay [9], 1.1 µM (active); in [10], 1.09 µM (active); in assay [11], 3.54 µM (inactive); in assay [12], 10.3 µM (inactive). In addition, the GI50 in [13] is 64.3 µM (inactive); in assay [14] it was 16.9 µM (inactive); in assay [15], 13.7 µM (inactive); in [16] it was 3.17 µM (inactive); in assay [17] it was 11.1 µM (inactive); in [18], 2.86 µM (inactive). For the same molecule, the GI50 in assay [19] is 8.69 µM (inactive); in assay [20], 6.64 µM (inactive).

For `COc1cc(N(CCC#N)CCC#N)ccc1C(=N/NC(=O)c1cc(Br)ccc1O)/N=N/c1ccc(C)cc1`, the GI50 was 19.3 µM (inactive) in [1]; 12.2 µM in assay [2]; 24.2 µM (inactive) in assay [3]; 25.1 µM (inactive) in assay [4]; 32.4 µM (inactive) in assay [5]; 40.2 µM (inactive) in assay [6]. Besides, the GI50 in assay [7] is 4.36 µM (inactive); in [8], 17 µM (inactive); in assay [9] it was 17.1 µM (inactive); in assay [10] it was 37.2 µM (inactive); in assay [11], 31 µM (inactive); in assay [12], 17.4 µM (inactive). Moreover, the GI50 in assay [13] is 25.6 µM (inactive); in [14] it was 4.32 µM (inactive); in assay [15], 29.7 µM (inactive); in [16] it was 27.4 µM (inactive); in assay [17], 24.3 µM (inactive); in [18], 19.7 µM (inactive). For the same molecule, the GI50 in [19] was 22.9 µM (inactive); in assay [20], 18 µM (inactive).

As for `O=[N+]([O-])c1ccc2c(c1)Nc1c3ccccc3nc3cccc-2c13`, the GI50 in [1] is 8.39 µM (inactive); in [2] it was 3.56 µM; in assay [3], 2.04 µM (inactive); in assay [4], 16.9 µM (inactive); in assay [5], 25.9 µM (inactive); in assay [6], 6.53 µM (inactive). Besides, the GI50 in assay [7] was 3.95 µM (inactive); in [8], 4.85 µM (inactive); in [9], 0.883 µM (active); in [10], 2.1 µM (inactive); in assay [11] it was 0.482 µM (active); in assay [12] it was 0.219 µM (active). Further, the GI50 is 17.3 µM (inactive) in assay [13]; 1.47 µM (inactive) in [14]; 2.13 µM (inactive) in assay [15]; 0.593 µM (active) in [16]; 0.733 µM (active) in assay [17]; 0.183 µM (active) in assay [18]. Also, the 50% growth inhibitory concentration (GI50) in assay [19] was 0.689 µM (active); in [20], 3.44 µM (inactive).
